Assays:
Format in all cases: cell-based
Details in all cases: 24 hours of compound treatment, 50 nM and 500 nM
WEE1 = target: T1, WEE1 (Homo sapiens, UniProt P30291+Q96SW2); assay: Western-blot assay, substrate protein degradation in hPBMCs: WEE1
T1 construct: effects of the compounds of the present disclosure on the expression of target proteins in cells; endogenous in cells; host or cells: human PBMCs (hPBMCs)

IKZF1 = target: T2, IKZF1 (Homo sapiens, UniProt Q13422+Q96SW2); assay: Western-blot assay, substrate protein degradation in hPBMCs: IKZF1
T2 construct: effects of the compounds of the present disclosure on the expression of target proteins in cells; endogenous in cells; host or cells: human PBMCs (hPBMCs)

IKZF2 = target: T3, IKZF2 (Homo sapiens, UniProt Q96SW2+Q9UKS7); assay: Western-blot assay, substrate protein degradation in hPBMCs: IKZF2
T3 construct: effects of the compounds of the present disclosure on the expression of target proteins in cells; endogenous in cells; host or cells: human PBMCs (hPBMCs)

IKZF3 = target: T4, IKZF3 (Homo sapiens, UniProt Q96SW2+Q9UKT9); assay: Western-blot assay, substrate protein degradation in hPBMCs: IKZF3
T4 construct: effects of the compounds of the present disclosure on the expression of target proteins in cells; endogenous in cells; host or cells: human PBMCs (hPBMCs)

CK1α = target: T5, CK1α (Homo sapiens, UniProt P48729+Q96SW2); assay: Western-blot assay, substrate protein degradation in hPBMCs: CK1α
T5 construct: effects of the compounds of the present disclosure on the expression of target proteins in cells; endogenous in cells; host or cells: human PBMCs (hPBMCs)

GSPT1 = target: T6, GSPT1 (Homo sapiens, UniProt P15170+Q96SW2); assay: Western-blot assay, substrate protein degradation in hPBMCs: GSPT1
T6 construct: effects of the compounds of the present disclosure on the expression of target proteins in cells; endogenous in cells; host or cells: human PBMCs (hPBMCs)
T6 sequence (P15170 whole entry): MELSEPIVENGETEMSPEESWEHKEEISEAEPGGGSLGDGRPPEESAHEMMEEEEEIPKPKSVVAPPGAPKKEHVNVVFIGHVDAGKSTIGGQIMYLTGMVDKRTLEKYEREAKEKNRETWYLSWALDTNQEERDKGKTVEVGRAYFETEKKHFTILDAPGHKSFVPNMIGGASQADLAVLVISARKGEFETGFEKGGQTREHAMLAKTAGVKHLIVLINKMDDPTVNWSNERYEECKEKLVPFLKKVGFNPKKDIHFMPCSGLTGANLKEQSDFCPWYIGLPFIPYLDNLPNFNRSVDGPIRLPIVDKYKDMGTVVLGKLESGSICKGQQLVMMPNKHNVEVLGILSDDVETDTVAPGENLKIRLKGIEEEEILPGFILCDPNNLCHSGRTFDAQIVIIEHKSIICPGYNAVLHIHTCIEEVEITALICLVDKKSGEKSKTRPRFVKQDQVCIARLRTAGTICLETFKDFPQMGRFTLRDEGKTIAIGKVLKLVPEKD
T6 sequence (Q96SW2 whole entry): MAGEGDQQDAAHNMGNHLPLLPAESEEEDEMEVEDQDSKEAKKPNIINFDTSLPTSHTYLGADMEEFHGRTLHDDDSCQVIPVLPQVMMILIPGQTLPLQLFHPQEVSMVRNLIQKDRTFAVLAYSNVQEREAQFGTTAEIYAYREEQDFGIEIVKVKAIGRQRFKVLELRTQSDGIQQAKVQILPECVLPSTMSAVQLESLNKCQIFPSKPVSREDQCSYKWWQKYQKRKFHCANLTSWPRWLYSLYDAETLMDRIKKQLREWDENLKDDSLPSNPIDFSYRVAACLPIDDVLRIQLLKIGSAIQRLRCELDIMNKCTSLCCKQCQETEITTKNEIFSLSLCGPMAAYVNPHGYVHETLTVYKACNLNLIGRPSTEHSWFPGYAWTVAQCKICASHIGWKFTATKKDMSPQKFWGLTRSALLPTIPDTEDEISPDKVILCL
T6 sequence (Q16531 whole entry partner): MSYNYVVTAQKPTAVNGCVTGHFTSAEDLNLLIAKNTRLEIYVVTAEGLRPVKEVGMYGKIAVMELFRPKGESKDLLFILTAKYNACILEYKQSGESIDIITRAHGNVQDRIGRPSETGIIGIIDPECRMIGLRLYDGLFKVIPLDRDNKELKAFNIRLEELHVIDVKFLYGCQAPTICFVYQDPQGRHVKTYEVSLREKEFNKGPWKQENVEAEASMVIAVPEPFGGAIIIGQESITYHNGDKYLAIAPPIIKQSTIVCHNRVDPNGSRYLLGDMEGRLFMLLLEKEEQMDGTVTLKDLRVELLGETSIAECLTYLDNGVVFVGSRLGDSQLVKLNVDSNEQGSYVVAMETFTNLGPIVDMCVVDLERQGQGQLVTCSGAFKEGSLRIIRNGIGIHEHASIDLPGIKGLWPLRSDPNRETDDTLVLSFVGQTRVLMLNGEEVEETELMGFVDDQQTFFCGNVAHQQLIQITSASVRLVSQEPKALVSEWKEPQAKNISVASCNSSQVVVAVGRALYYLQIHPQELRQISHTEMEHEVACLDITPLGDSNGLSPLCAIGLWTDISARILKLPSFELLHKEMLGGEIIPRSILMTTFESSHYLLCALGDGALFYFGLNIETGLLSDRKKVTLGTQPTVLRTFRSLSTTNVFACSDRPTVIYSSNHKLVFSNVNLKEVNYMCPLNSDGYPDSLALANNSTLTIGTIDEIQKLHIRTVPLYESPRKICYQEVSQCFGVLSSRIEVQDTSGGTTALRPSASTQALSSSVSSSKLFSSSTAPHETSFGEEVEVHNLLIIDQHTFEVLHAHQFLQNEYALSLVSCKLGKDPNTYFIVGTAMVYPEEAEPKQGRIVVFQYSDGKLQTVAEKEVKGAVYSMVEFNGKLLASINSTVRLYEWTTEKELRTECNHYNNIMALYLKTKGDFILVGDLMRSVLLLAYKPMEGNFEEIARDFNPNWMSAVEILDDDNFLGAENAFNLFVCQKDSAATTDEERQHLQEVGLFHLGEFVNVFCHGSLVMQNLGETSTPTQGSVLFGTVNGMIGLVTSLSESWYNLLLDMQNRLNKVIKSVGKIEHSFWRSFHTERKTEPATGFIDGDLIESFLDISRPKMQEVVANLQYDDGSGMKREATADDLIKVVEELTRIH

T5 sequence (P48729 whole entry): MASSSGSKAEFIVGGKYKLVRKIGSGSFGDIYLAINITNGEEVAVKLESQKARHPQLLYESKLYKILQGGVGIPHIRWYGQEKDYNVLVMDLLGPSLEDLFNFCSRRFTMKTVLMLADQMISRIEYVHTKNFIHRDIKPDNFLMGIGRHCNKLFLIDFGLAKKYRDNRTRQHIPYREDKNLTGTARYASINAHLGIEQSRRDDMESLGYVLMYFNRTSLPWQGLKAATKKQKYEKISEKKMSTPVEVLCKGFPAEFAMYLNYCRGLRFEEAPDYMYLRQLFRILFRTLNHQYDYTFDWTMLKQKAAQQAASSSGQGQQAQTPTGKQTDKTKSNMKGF
T5 sequence (Q96SW2 whole entry): as the sequence (Q96SW2 whole entry) above
T5 sequence (Q16531 whole entry partner): as the sequence (Q16531 whole entry partner) above
T2 sequence (Q13422 whole entry): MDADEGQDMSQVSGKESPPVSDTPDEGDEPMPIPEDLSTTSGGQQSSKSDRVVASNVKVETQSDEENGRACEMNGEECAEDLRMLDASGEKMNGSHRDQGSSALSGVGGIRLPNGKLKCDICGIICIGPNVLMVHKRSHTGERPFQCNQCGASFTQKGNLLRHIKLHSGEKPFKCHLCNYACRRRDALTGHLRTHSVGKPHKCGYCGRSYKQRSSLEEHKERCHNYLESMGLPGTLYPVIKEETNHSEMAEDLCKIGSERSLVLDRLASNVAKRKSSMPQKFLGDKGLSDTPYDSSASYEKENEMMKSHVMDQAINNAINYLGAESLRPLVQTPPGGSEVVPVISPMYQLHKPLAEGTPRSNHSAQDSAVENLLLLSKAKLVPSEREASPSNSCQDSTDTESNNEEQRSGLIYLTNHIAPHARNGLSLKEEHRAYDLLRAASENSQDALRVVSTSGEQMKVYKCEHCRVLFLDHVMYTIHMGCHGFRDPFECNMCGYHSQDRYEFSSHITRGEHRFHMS
T2 sequence (Q96SW2 whole entry): as the sequence (Q96SW2 whole entry) above
T2 sequence (Q16531 whole entry partner): as the sequence (Q16531 whole entry partner) above
T1 sequence (P30291 whole entry): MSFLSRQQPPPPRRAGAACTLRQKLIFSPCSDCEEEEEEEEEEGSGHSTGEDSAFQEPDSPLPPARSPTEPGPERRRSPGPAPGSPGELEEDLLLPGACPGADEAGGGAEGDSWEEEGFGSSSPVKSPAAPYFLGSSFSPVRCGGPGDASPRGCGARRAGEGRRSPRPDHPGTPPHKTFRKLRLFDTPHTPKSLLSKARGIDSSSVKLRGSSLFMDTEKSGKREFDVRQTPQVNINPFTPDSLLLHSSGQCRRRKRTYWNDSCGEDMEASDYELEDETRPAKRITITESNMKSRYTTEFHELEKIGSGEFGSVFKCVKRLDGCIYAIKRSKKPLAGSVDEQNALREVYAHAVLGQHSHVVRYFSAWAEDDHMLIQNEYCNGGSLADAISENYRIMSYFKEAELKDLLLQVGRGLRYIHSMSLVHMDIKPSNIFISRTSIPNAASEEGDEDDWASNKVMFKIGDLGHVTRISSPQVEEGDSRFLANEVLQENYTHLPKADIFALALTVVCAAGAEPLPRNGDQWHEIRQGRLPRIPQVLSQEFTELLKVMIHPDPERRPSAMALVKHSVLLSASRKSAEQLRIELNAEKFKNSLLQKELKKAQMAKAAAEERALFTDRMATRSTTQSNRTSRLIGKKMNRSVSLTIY
T1 sequence (Q96SW2 whole entry): as the sequence (Q96SW2 whole entry) above
T1 sequence (Q16531 whole entry partner): as the sequence (Q16531 whole entry partner) above
T4 sequence (Q9UKT9 whole entry): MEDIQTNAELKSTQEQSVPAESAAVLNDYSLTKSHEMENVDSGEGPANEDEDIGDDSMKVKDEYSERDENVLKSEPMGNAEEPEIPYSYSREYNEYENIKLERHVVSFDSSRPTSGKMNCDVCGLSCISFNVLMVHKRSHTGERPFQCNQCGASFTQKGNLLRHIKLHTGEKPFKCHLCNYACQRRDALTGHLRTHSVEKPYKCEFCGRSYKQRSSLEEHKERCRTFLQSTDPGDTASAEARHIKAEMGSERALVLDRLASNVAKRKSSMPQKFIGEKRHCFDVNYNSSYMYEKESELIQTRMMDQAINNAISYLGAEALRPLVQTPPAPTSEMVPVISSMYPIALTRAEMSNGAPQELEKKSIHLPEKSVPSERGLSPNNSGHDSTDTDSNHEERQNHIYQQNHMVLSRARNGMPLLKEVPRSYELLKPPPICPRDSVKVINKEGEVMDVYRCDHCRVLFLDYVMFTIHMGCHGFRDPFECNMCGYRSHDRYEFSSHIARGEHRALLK
T4 sequence (Q96SW2 whole entry): as the sequence (Q96SW2 whole entry) above
T4 sequence (Q16531 whole entry partner): as the sequence (Q16531 whole entry partner) above

| Compound | substrate protein remaining % WEE1 (WEE1) | substrate protein remaining % IKZF1 (IKZF1) | substrate protein remaining % IKZF2 (IKZF2) | substrate protein remaining % IKZF3 (IKZF3) | substrate protein remaining % CK1α (CK1α) | substrate protein remaining % GSPT1 (GSPT1) |
| --- | --- | --- | --- | --- | --- | --- |
| CC1(C)CCC(CN2CC3CC2CN3Cc2ccc3c(c2)CN(N2CCC(=O)NC2=O)C3=O)=C(c2ccc(Cl)cc2)C1 (stereo not drawn) [GT-07329, 1-(5-((5-((4'-chloro-5,5-dimethyl-3,4,5,6-tetrahydro-[1,1'-biphenyl]-2-yl)methyl)-2,5-diazabicyclo[2.2.1]heptan-2-yl)methyl)-1-oxoisoindolin-2-yl)dihydropyrimidine-2,4(1H,3H)-dione] | A (0% ≤ substrate protein remaining % ≤ 80%) | B (80%< substrate protein remaining %≤ 100%) | B (80%< substrate protein remaining %≤ 100%) | B (80%< substrate protein remaining %≤ 100%) | B (80%< substrate protein remaining %≤ 100%) | A (0% ≤ substrate protein remaining % ≤ 80%) |
| CC1(C)CCC(CN2CC3CCC(C2)N3Cc2ccc3c(c2)CN(N2CCC(=O)NC2=O)C3=O)=C(c2ccc(Cl)cc2)C1 [GT-07330, 1-(5-((3-((4'-chloro-5,5-dimethyl-3,4,5,6-tetrahydro-[1,1'-biphenyl]-2-yl)methyl)-3,8-diazabicyclo[3.2.1]octan-8-yl)methyl)-1-oxoisoindolin-2-yl)dihydropyrimidine-2,4(1H,3H)-dione] | A (0% ≤ substrate protein remaining % ≤ 80%) | A (0% ≤ substrate protein remaining % ≤ 80%) | A (0% ≤ substrate protein remaining % ≤ 80%) | A (0% ≤ substrate protein remaining % ≤ 80%) | B (80%< substrate protein remaining %≤ 100%) | A (0% ≤ substrate protein remaining % ≤ 80%) |
| CC1(C)CCC(CN2CC3CCC2CN3Cc2ccc3c(c2)CN(N2CCC(=O)NC2=O)C3=O)=C(c2ccc(Cl)cc2)C1 (stereo not drawn) [GT-07331, 1-(5-((5-((4'-chloro-5,5-dimethyl-3,4,5,6-tetrahydro-[1,1'-biphenyl]-2-yl)methyl)-2,5-diazabicyclo[2.2.2]octan-2-yl)methyl)-1-oxoisoindolin-2-yl)dihydropyrimidine-2,4(1H,3H)-dione] | A (0% ≤ substrate protein remaining % ≤ 80%) | A (0% ≤ substrate protein remaining % ≤ 80%) | B (80%< substrate protein remaining %≤ 100%) | A (0% ≤ substrate protein remaining % ≤ 80%) | A (0% ≤ substrate protein remaining % ≤ 80%) | A (0% ≤ substrate protein remaining % ≤ 80%) |
| CC1(C)CC(c2ccc(Cl)cc2)=C(CN2CCN(Cc3ccc4c(c3)CN(N3CCC(=O)NC3=O)C4=O)CC2)CO1 [GT-07332, 1-(5-((4-((4-(4-chlorophenyl)-6,6-dimethyl-5,6-dihydro-2H-pyran-3-yl)methyl)piperazin-1-yl)methyl)-1-oxoisoindolin-2-yl)dihydropyrimidine-2,4(1H,3H)-dione] | A (0% ≤ substrate protein remaining % ≤ 80%) | A (0% ≤ substrate protein remaining % ≤ 80%) | B (80%< substrate protein remaining %≤ 100%) | A (0% ≤ substrate protein remaining % ≤ 80%) | B (80%< substrate protein remaining %≤ 100%) | A (0% ≤ substrate protein remaining % ≤ 80%) |
| CC1(C)CCC(CN2CC3CCC(C2)N3Cc2ccc3c(c2)C(=O)N(N2CCC(=O)NC2=O)C3=O)=C(c2ccc(Cl)cc2)C1 [GT-07333, 5-((3-((4'-chloro-5,5-dimethyl-3,4,5,6-tetrahydro-[1,1'-biphenyl]-2-yl)methyl)-3,8-diazabicyclo[3.2.1]octan-8-yl)methyl)-2-(2,4-dioxotetrahydropyrimidin-1(2H)-yl)isoindoline-1,3-dione] | B (80%< substrate protein remaining %≤ 100%) | B (80%< substrate protein remaining %≤ 100%) | B (80%< substrate protein remaining %≤ 100%) | B (80%< substrate protein remaining %≤ 100%) | B (80%< substrate protein remaining %≤ 100%) | A (0% ≤ substrate protein remaining % ≤ 80%) |
| CC1(C)CCC(CN2CC3CC2CN3Cc2ccc3c(c2)C(=O)N(N2CCC(=O)NC2=O)C3=O)=C(c2ccc(Cl)cc2)C1 (stereo not drawn) [GT-07334, 5-((5-((4'-chloro-5,5-dimethyl-3,4,5,6-tetrahydro-[1,1'-biphenyl]-2-yl)methyl)-2,5-diazabicyclo[2.2.1]heptan-2-yl)methyl)-2-(2,4-dioxotetrahydropyrimidin-1(2H)-yl)isoindoline-1,3-dione] | A (0% ≤ substrate protein remaining % ≤ 80%) | B (80%< substrate protein remaining %≤ 100%) | B (80%< substrate protein remaining %≤ 100%) | B (80%< substrate protein remaining %≤ 100%) | A (0% ≤ substrate protein remaining % ≤ 80%) | B (80%< substrate protein remaining %≤ 100%) |
| Cc1cscc1C1CCN(Cc2ccc3c(c2)CN(N2CCC(=O)NC2=O)C3=O)CC1 [GT-07372, 1-(5-((4-(4-methylthiophen-3-yl)piperidin-1-yl)methyl)-1-oxoisoindolin-2-yl)dihydropyrimidine-2,4(1H,3H)-dione] | B (80%< substrate protein remaining %≤ 100%) | B (80%< substrate protein remaining %≤ 100%) | B (80%< substrate protein remaining %≤ 100%) | A (0% ≤ substrate protein remaining % ≤ 80%) | B (80%< substrate protein remaining %≤ 100%) | A (0% ≤ substrate protein remaining % ≤ 80%) |
| Cc1cc(C2CCN(Cc3ccc4c(c3)CN(N3CCC(=O)NC3=O)C4=O)CC2)cs1 [GT-07373, 1-(5-((4-(5-methylthiophen-3-yl)piperidin-1-yl)methyl)-1-oxoisoindolin-2-yl)dihydropyrimidine-2,4(1H,3H)-dione] | B (80%< substrate protein remaining %≤ 100%) | B (80%< substrate protein remaining %≤ 100%) | B (80%< substrate protein remaining %≤ 100%) | A (0% ≤ substrate protein remaining % ≤ 80%) | B (80%< substrate protein remaining %≤ 100%) | A (0% ≤ substrate protein remaining % ≤ 80%) |
| O=C1CCN(N2Cc3cc(CN4CCC(c5ccco5)CC4)ccc3C2=O)C(=O)N1 [GT-07374, 1-(5-((4-(furan-2-yl)piperidin-1-yl)methyl)-1-oxoisoindolin-2-yl)dihydropyrimidine-2,4(1H,3H)-dione] | B (80%< substrate protein remaining %≤ 100%) | B (80%< substrate protein remaining %≤ 100%) | B (80%< substrate protein remaining %≤ 100%) | B (80%< substrate protein remaining %≤ 100%) | A (0% ≤ substrate protein remaining % ≤ 80%) | A (0% ≤ substrate protein remaining % ≤ 80%) |
| O=C1CCN(N2Cc3cc(CN4CCC(c5ccoc5)CC4)ccc3C2=O)C(=O)N1 [GT-07375, 1-(5-((4-(furan-3-yl)piperidin-1-yl)methyl)-1-oxoisoindolin-2-yl)dihydropyrimidine-2,4(1H,3H)-dione] | B (80%< substrate protein remaining %≤ 100%) | B (80%< substrate protein remaining %≤ 100%) | B (80%< substrate protein remaining %≤ 100%) | B (80%< substrate protein remaining %≤ 100%) | A (0% ≤ substrate protein remaining % ≤ 80%) | A (0% ≤ substrate protein remaining % ≤ 80%) |
| O=C1CCN(N2Cc3cc(CN4C5CC4CN(C(=O)C4=C(c6ccc(F)cc6)CCCC4)C5)ccc3C2=O)C(=O)N1 [GT-07376, 1-(5-((3-(4'-fluoro-3,4,5,6-tetrahydro-[1,1'-biphenyl]-2-carbonyl)-3,6-diazabicyclo[3.1.1]heptan-6-yl)methyl)-1-oxoisoindolin-2-yl)dihydropyrimidine-2,4(1H,3H)-dione] | A (0% ≤ substrate protein remaining % ≤ 80%) | B (80%< substrate protein remaining %≤ 100%) | B (80%< substrate protein remaining %≤ 100%) | B (80%< substrate protein remaining %≤ 100%) | B (80%< substrate protein remaining %≤ 100%) | B (80%< substrate protein remaining %≤ 100%) |
| O=C1CCN(N2C(=O)c3ccc(CN4C5CC4CN(C(=O)C4=C(c6ccc(F)cc6)CCCC4)C5)cc3C2=O)C(=O)N1 [GT-07377, 2-(2,4-dioxotetrahydropyrimidin-1(2H)-yl)-5-((3-(4'-fluoro-3,4,5,6-tetrahydro-[1,1'-biphenyl]-2-carbonyl)-3,6-diazabicyclo[3.1.1]heptan-6-yl)methyl)isoindoline-1,3-dione] | A (0% ≤ substrate protein remaining % ≤ 80%) | B (80%< substrate protein remaining %≤ 100%) | A (0% ≤ substrate protein remaining % ≤ 80%) | B (80%< substrate protein remaining %≤ 100%) | A (0% ≤ substrate protein remaining % ≤ 80%) | A (0% ≤ substrate protein remaining % ≤ 80%) |

Source: patent publication EP4722207A1, “OXOISOINDOLINYL-SUBSTITUTED TETRAHYDROPYRIMIDINEDIONE DERIVATIVE AND USE THEREOF” (Gluetacs Therapeutics (Shanghai) Co., Ltd., priority 2023, dated 2024)
